From patent US20050214375A1, “Process for producing block copolymer/drug composite” (priority 2002, published 2005)
Where a name gives a salt, the structure may show the parent alone. Read-outs that look alike come from different tables or passages of the source.

System: Colon 26 adenocarcinoma cells
Details: intravenous; for T/C (%) volume ratio of tumor against control groups 14 days after administration: CDF1 female mouse, Colon 26
Protocol: Colon 26 adenocarcinoma cells were transplanted subcutaneously in the subaxillary region of each CDF1 female mouse. When the volume of the tumor reached around 100 mm^3, the block copolymer-drug composite obtained in Example 1 or doxorubicin hydrochloride was administered intravenously. […] The antitumor effect of the drug was judged from the number of mice showing disappearance of tumor (cured) 60 days after transplantation and the tumor proliferation inhibition ratio 14 days after administration.

In the case of `COc1cccc2c1C(=O)c1c(O)c3c(c(O)c1C2=O)C[C@@](O)(C(=O)CO)C[C@@H]3O[C@H]1C[C@H](N)[C@H](O)[C@H](C)O1` [Doxorubicin hydrochloride, doxorubicin hydrochloride], the “Cure/n: number of mice showing cure after 60 days observation period/number in one group” value (dose 19.2 mg/kg) is reported as 2/10, the “Tox./n: number of mice died with toxicity/number in one group” value (shortened to “Tox./n … with toxicity/number in one group”) (dose 19.2 mg/kg) is reported as 0/10 and the “T/C (%) volume ratio of tumor against control groups 14 days after administration” value (from here on “T/C (%) volume ratio of tumor”) (dose 19.2 mg/kg) is reported as 13.5%. For the same molecule, the “Cure/n: number of mice showing cure after 60 days observation period/number in one group” value (dose 24.0 mg/kg) was 4/10, the “Tox./n … with toxicity/number in one group” value (dose 24.0 mg/kg) was 0/10 and the “T/C (%) volume ratio of tumor” value (dose 24.0 mg/kg) was 6.4%. The “Cure/n: number of mice showing cure after 60 days observation period/number in one group” value (dose 30.0 mg/kg) was 3/10, the “Tox./n … with toxicity/number in one group” value (dose 30.0 mg/kg) was 1/10 and the “T/C (%) volume ratio of tumor” value (dose 30.0 mg/kg) was 9.9%.
